The values that follow come from paper PMC12121777 (PLOS One, 2025).

For one assay, the system named is Mtb 331/88 (i.e., H37Rv). The experiment in a line: MIC, micro method in Šula's semisynthetic medium, drug-susceptible Mtb. It is filed as cell-based, Mycobacterium tuberculosis. To be noted: Mycobacterium tuberculosis, H37RV.
In assay [1] the test system is Mycobacterium kansasii 6509/96. The experiment in a line: MIC, micro method in Šula's semisynthetic medium, M. kansasii clinical isolate. The format is cell-based. To be noted: read-out: MIC M. kansasii 6509/96.
Assay [2] deals with Mycobacterium avium 330/88. The experiment in a line: MIC, micro method in Šula's semisynthetic medium, M. avium. The format is cell-based.
A further assay deals with HepG2 cells. The experiment in a line: Cytotoxicity on HepG2 cell line (CellTiter 96). The format is cell-based, human. To be noted: read-out: IC50 HepG2.
[3] abbreviates: 330/88, 336 h, read-out: MIC M. avium 330/88.
Setting [4] is: 330/88, 504 h, read-out: MIC M. avium 330/88.

Values after ≈ are worked out from the molar mass of the structure shown. Read-outs that look alike come from different tables or passages of the source.

As to `CCCCNC(=O)NNC(=O)c1cc([N+](=O)[O-])cc([N+](=O)[O-])c1` [Compound 4d, N-Butyl-2-(3,5-dinitrobenzoyl)hydrazine-1-carboxamide], the MIC with Mtb 331/88 (i.e., H37Rv) (336 h, 14 days) was 2 µM (≈ 0.651 µg/mL); in the assay with Mtb 331/88 (i.e., H37Rv) (504 h, 21 days), 2 µM (≈ 0.651 µg/mL); in assay [1] (6509/96, 168 h), 2 µM (≈ 0.651 µg/mL); in assay [1] (6509/96, 336 h) it was 4 µM (≈ 1.3 µg/mL); in assay [1] (6509/96, 504 h) it was 4 µM (≈ 1.3 µg/mL); in assay [2] (setting [3]), 1000 µM (≈ 325 µg/mL). Besides, the MIC in assay [2] (setting [4]) was 1000 µM (≈ 325 µg/mL). Also, the half-inhibitory concentration (IC50) (commonly the midpoint of a concentration-inhibition curve) in the assay with HepG2 cells (Homo sapiens, HepG2, 24 h) was found to be 198 µM.
Turning to `CCCCCNC(=O)NNC(=O)c1cc([N+](=O)[O-])cc([N+](=O)[O-])c1` [Compound 4e, 2-(3,5-Dinitrobenzoyl)-N-pentylhydrazine-1-carboxamide], the MIC was found to be 1 µM (≈ 0.339 µg/mL) with Mtb 331/88 (i.e., H37Rv) (336 h, 14 days); 1 µM (≈ 0.339 µg/mL) against Mtb 331/88 (i.e., H37Rv) (504 h, 21 days); 1 µM (≈ 0.339 µg/mL) in assay [1] (6509/96, 168 h); 1 µM (≈ 0.339 µg/mL) in assay [1] (6509/96, 336 h); 2 µM (≈ 0.679 µg/mL) in assay [1] (6509/96, 504 h); 1000 µM (≈ 339 µg/mL) in assay [2] (setting [3]). Besides, the MIC in assay [2] (setting [4]) is 1000 µM (≈ 339 µg/mL). The IC50 in the assay on HepG2 cells (Homo sapiens, HepG2, 24 h) is 134 µM.
In the case of `CCCCCCNC(=O)NNC(=O)c1cc([N+](=O)[O-])cc([N+](=O)[O-])c1` [Compound 4f, 2-(3,5-Dinitrobenzoyl)-N-hexylhydrazine-1-carboxamide], the MIC against Mtb 331/88 (i.e., H37Rv) (336 h, 14 days) came out at 1 µM (≈ 0.353 µg/mL); in the assay on Mtb 331/88 (i.e., H37Rv) (504 h, 21 days), 1 µM (≈ 0.353 µg/mL); in assay [1] (6509/96, 168 h), 1 µM (≈ 0.353 µg/mL); in assay [1] (6509/96, 336 h), 1 µM (≈ 0.353 µg/mL); in assay [1] (6509/96, 504 h), 1 µM (≈ 0.353 µg/mL); in assay [2] (setting [3]), 250 µM (≈ 88.3 µg/mL). For the same compound, the MIC in assay [2] (setting [4]) is 250 µM (≈ 88.3 µg/mL); in assay [2] (330/88, read-out: MIC M. avium) it was 125 to 250 µM (≈ 44.2 to 88.3 µg/mL). Also, in the assay with HepG2 cells (Homo sapiens, HepG2, 24 h), the IC50 came out at 119 µM.
With `CCCCCCCNC(=O)NNC(=O)c1cc([N+](=O)[O-])cc([N+](=O)[O-])c1` [Compound 4g, 2-(3,5-Dinitrobenzoyl)-N-heptylhydrazine-1-carboxamide], the MIC was determined as 0.5 µM (≈ 0.184 µg/mL) with Mtb 331/88 (i.e., H37Rv) (336 h, 14 days); 0.5 µM (≈ 0.184 µg/mL) with Mtb 331/88 (i.e., H37Rv) (504 h, 21 days); 1 µM (≈ 0.367 µg/mL) in assay [1] (6509/96, 168 h); 1 µM (≈ 0.367 µg/mL) in assay [1] (6509/96, 336 h); 1 µM (≈ 0.367 µg/mL) in assay [1] (6509/96, 504 h); 125 µM (≈ 45.9 µg/mL) in assay [2] (setting [3]). For the same compound, the MIC was 250 µM (≈ 91.8 µg/mL) in assay [2] (setting [4]) and 125 to 250 µM (≈ 45.9 to 91.8 µg/mL) in assay [2] (330/88, read-out: MIC M. avium). The IC50 with HepG2 cells (Homo sapiens, HepG2, 24 h) came out at 117 µM.
For `CCCCCCCCCNC(=O)NNC(=O)c1cc([N+](=O)[O-])cc([N+](=O)[O-])c1` [Compound 4i, 2-(3,5-Dinitrobenzoyl)-N-nonylhydrazine-1-carboxamide], the MIC in the assay with Mtb 331/88 (i.e., H37Rv) (336 h, 14 days) was determined as 0.5 µM (≈ 0.198 µg/mL); with Mtb 331/88 (i.e., H37Rv) (504 h, 21 days) it was 1 µM (≈ 0.395 µg/mL); in assay [1] (6509/96, 168 h) it was 1 µM (≈ 0.395 µg/mL); in assay [1] (6509/96, 336 h), 1 µM (≈ 0.395 µg/mL); in assay [1] (6509/96, 504 h), 1 µM (≈ 0.395 µg/mL); in assay [2] (setting [3]), 125 µM (≈ 49.4 µg/mL). Besides, the MIC in assay [2] (setting [4]) was 250 µM (≈ 98.9 µg/mL); in assay [2] (330/88, read-out: MIC M. avium) it was 125 to 250 µM (≈ 49.4 to 98.9 µg/mL). Besides, the IC50 in the assay on HepG2 cells (Homo sapiens, HepG2, 24 h) came to 125 µM.
In the case of `CCCCCCCCCCNC(=O)NNC(=O)c1cc([N+](=O)[O-])cc([N+](=O)[O-])c1` [Compound 4j, N-Decyl-2-(3,5-dinitrobenzoyl)hydrazine-1-carboxamide], the MIC with Mtb 331/88 (i.e., H37Rv) (336 h, 14 days) was 1 µM (≈ 0.409 µg/mL); against Mtb 331/88 (i.e., H37Rv) (504 h, 21 days), 1 µM (≈ 0.409 µg/mL); in assay [1] (6509/96, 168 h) it was 1 µM (≈ 0.409 µg/mL); in assay [1] (6509/96, 336 h), 2 µM (≈ 0.819 µg/mL); in assay [1] (6509/96, 504 h) it was 4 µM (≈ 1.64 µg/mL); in assay [2] (setting [3]), > 500 µM. In assay [2] (setting [4]), the MIC was > 500 µM. The IC50 in the assay on HepG2 cells (Homo sapiens, HepG2, 24 h) was 141 µM.
As to `CCCCCCCCCCCNC(=O)NNC(=O)c1cc([N+](=O)[O-])cc([N+](=O)[O-])c1` [Compound 4k, 2-(3,5-Dinitrobenzoyl)-N-undecylhydrazine-1-carboxamide], the MIC is 1 µM (≈ 0.423 µg/mL) against Mtb 331/88 (i.e., H37Rv) (336 h, 14 days); 1 µM (≈ 0.423 µg/mL) in the assay with Mtb 331/88 (i.e., H37Rv) (504 h, 21 days); 2 µM (≈ 0.847 µg/mL) in assay [1] (6509/96, 168 h); 4 µM (≈ 1.69 µg/mL) in assay [1] (6509/96, 336 h); 4 µM (≈ 1.69 µg/mL) in assay [1] (6509/96, 504 h); > 500 µM in assay [2] (setting [3]). The MIC in assay [2] (setting [4]) is > 500 µM. Also, the IC50 is < 100 µM in the assay on HepG2 cells (Homo sapiens, HepG2, 24 h) and 99.9 µM in the assay on HepG2 cells.
Consider `CCCCCCCCCCCCNC(=O)NNC(=O)c1cc([N+](=O)[O-])cc([N+](=O)[O-])c1` [Compound 4l, 2-(3,5-Dinitrobenzoyl)-N-dodecylhydrazine-1-carboxamide], for which the MIC was 2 µM (≈ 0.875 µg/mL) with Mtb 331/88 (i.e., H37Rv) (336 h, 14 days); 2 µM (≈ 0.875 µg/mL) with Mtb 331/88 (i.e., H37Rv) (504 h, 21 days); 2 µM (≈ 0.875 µg/mL) in assay [1] (6509/96, 168 h); 2 µM (≈ 0.875 µg/mL) in assay [1] (6509/96, 336 h); 4 µM (≈ 1.75 µg/mL) in assay [1] (6509/96, 504 h); > 250 µM in assay [2] (setting [3]). Also, in assay [2] (setting [4]), the MIC is > 250 µM. Also, the half-inhibitory concentration (IC50) with HepG2 cells (Homo sapiens, HepG2, 24 h) stood at 166 µM.
With `CCCCCCCCCCCCCNC(=O)NNC(=O)c1cc([N+](=O)[O-])cc([N+](=O)[O-])c1` [Compound 4m, 2-(3,5-Dinitrobenzoyl)-N-tridecylhydrazine-1-carboxamide], the MIC was 2 µM (≈ 0.903 µg/mL) against Mtb 331/88 (i.e., H37Rv) (336 h, 14 days); 4 µM (≈ 1.81 µg/mL) against Mtb 331/88 (i.e., H37Rv) (504 h, 21 days); 2 µM (≈ 0.903 µg/mL) in assay [1] (6509/96, 168 h); 2 µM (≈ 0.903 µg/mL) in assay [1] (6509/96, 336 h); 4 µM (≈ 1.81 µg/mL) in assay [1] (6509/96, 504 h); > 500 µM in assay [2] (setting [3]). Also, the MIC in assay [2] (setting [4]) was > 500 µM. Moreover, the IC50 in the assay on HepG2 cells (Homo sapiens, HepG2, 24 h) came out at 163 µM.
